Data taken from patent publication US8859534B2, “2-carboxamide-7-piperazinyl-benzofuran derivatives” (AstraZeneca AB, priority 2009, dated 2014).

Assays:
5-HT1A receptor = 5-HT1A receptor (Homo sapiens (Human), UniProt P08908); assay: 5-HT1A receptor competition binding assay (SPA, [3H]-8-OH-DPAT); conditions: membranes of CHO cells expressing 5-HT1A receptors; radioligand [3H]-8-OH-DPAT 0.15-0.2 nM
From the text: (§1) Assays that were used to measure affinity of the compounds of the present invention for 5-HT1A and 5-HT1B receptors are described in J. Recept Signal Transduct. Res. 22:483-495 (2002) and Naunyn-Schmiedeberg's Arch Pharmacol. 356:328-334 (1997) and incorporated by reference herein. These assays were be used with some modifications:
(§2) For the binding assay stably transfected chinese hamster ovary (CHO) cell lines expressing 5-HT1A receptors or 5-HT1B receptors were harvested by centrifugation at 300×g for 10 min and resuspended in 10 mM Tris-HCl, 5 mM EDTA at pH 7.4. The cells were pooled, recentrifuged and resuspended before homogenisation using a Dounce homogeniser (“type B”). Cell membranes were centrifuged at 48 000×g for 10 min and then resuspended in harvesting buffer using an Ultra-Turrax T8 (IKA Labortechnik, Germany), aliquots were stored frozen in −70° C.
Frozen membrane preparations were thawed, homogenized with an Ultra-Turrax and mixed with SPA beads (YSI coated WGA, GE Healthcare/Amersham, Buckinghamshire, UK) in assay buffer containing 50 mM Tris-Base, 4 mM MgCl2, 4 mM CaCl2 (only 5-HT1B), 1 mM EDTA, and adjusted to pH 7.4 with HCl. […] The binding assays were performed in 384-well plates in a final volume of 90 μL/well with the following additions: 9 μL binding buffer; 1 μL compound/DMSO/nonspecific; 20 μL radioligand; and 60 μL beads/membrane mixture. Non-specific binding was defined by using 10 μM WAY100635 for 5-HT1A and 10 μM Methiothepin for 5-HT1B. The assay plates were incubated for 4 hours where after the plates are counted in a Wallac 1450 Microbeta Trilux counter (PerkinElmer LifeScience, US) or similar. Data from the experiments were analyzed using a four parameter logistic equation as follows: Y=Bottom+(Top-Bottom)/1+10^(LogEC50-X)nH.

5-HT1B receptor = 5-HT1B receptor (Homo sapiens (Human), UniProt P28222); assay: 5-HT1B receptor competition binding assay (SPA, [3H]-GR125743); conditions: membranes of CHO cells expressing 5-HT1B receptors; radioligand [3H]-GR125743 0.15-0.2 nM
5-HT1B receptor, sequence (P28222 whole entry): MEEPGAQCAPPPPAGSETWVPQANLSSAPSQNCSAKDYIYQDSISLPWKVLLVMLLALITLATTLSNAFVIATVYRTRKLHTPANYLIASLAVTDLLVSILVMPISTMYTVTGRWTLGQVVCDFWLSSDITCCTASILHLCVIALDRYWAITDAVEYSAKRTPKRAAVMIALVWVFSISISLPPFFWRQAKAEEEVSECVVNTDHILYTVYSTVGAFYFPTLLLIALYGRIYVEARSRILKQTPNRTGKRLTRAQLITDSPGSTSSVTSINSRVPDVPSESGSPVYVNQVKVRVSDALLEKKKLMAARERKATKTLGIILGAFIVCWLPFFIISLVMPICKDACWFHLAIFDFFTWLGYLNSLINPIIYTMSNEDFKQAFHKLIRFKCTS
From the text: as §1, §2
Frozen membrane preparations were thawed, homogenized with an Ultra-Turrax and mixed with SPA beads (YSI coated WGA, GE Healthcare/Amersham, Buckinghamshire, UK) in assay buffer containing 50 mM Tris-Base, 4 mM MgCl2, 4 mM CaCl2 (only 5-HT1B), 1 mM EDTA, and adjusted to pH 7.4 with HCl. The beads/membrane solution, final concentration 100 pM receptors for 5-HT1A, 300 pM receptors for 5-HT1B and 0.5 mg SPA beads/well, was pre-incubated in room temperature with stirring for 30-60 min. […] Five (log interval, 10 μM to 1 nM, final concentration) or ten serial dilutions (½-log interval, 10 μM to 0.32 nM, final concentration) of compounds were prepared in DMSO from 10 mM stock solutions. The binding assays were performed in 384-well plates in a final volume of 90 μL/well with the following additions: 9 μL binding buffer; 1 μL compound/DMSO/nonspecific; 20 μL radioligand; and 60 μL beads/membrane mixture. Non-specific binding was defined by using 10 μM WAY100635 for 5-HT1A and 10 μM Methiothepin for 5-HT1B. The assay plates were incubated for 4 hours where after the plates are counted in a Wallac 1450 Microbeta Trilux counter (PerkinElmer LifeScience, US) or similar. Data from the experiments were analyzed using a four parameter logistic equation as follows: Y=Bottom+(Top-Bottom)/1+10^(LogEC50-X)nH.
• Jerning E., Rosqvist S., Mohell N. (2002) NAD-299 antagonises 5-HT-stimulated and Spiperone-inhibited [^35S]GTPγS binding in cloned 5-HT1A receptors. J Recept Signal Transduct Res 22:483-495. • Doménech T., Beleta J., Palacios J. M. (1997) Characterization of human serotonin 1D and 1B receptors using [^3H]-GR-125743, a novel radiolabelled serotonin 5HT1D/1B receptor antagonist. Naunyn-Schmiedeberg's Arch Pharmacol 356:328-334.

5-HT1A receptor, sequence (P08908 whole entry): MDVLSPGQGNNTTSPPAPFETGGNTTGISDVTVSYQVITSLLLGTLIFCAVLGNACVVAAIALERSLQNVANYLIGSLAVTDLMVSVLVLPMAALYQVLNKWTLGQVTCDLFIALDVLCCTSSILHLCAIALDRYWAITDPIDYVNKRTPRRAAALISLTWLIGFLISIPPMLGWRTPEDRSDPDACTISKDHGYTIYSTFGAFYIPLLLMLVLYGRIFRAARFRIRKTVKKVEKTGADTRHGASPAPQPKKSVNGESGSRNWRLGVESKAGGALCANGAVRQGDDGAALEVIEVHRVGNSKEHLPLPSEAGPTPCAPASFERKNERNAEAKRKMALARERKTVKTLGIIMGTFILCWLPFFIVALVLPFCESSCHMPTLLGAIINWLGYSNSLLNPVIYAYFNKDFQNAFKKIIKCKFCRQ

| Ki (5-HT1A receptor) [nM] | Ki (5-HT1B receptor) [nM] | Compound |
| --- | --- | --- |
| 2.9 | 31 | CN(Cc1ccccn1)C(=O)c1cc2cccc(N3CCN(CCc4ccccn4)CC3)c2o1 [Example 25, N-Methyl-7-(4-(2-(pyridin-2-yl)ethyl)piperazin-1-yl)-N-(pyridin-2-ylmethyl)benzofuran-2-carboxamide] |
| 12 | 280 | CC(NC(=O)c1cc2cccc(N3CCN(CCc4ccccn4)CC3)c2o1)c1ccnn1C (centres unmarked) [Example 32, N-(1-(1-Methyl-1H-pyrazol-5-yl)ethyl)-7-(4-(2-(pyridin-2-yl)ethyl)piperazin-1-yl)benzofuran-2-carboxamide] |
| 1.9 | 0.46 | O=C(c1cc2cccc(N3CCN(CCc4ccccn4)CC3)c2o1)N1CC(Oc2cccnc2)C1 [Example 36, (7-(4-(2-(Pyridin-2-yl)ethyl)piperazin-1-yl)benzofuran-2-yl)(3-(pyridin-3-yloxy)azetidin-1-yl)methanone] |
| 1.3 | 1.4 | COc1cccc(CCN2CCN(c3cccc4cc(C(=O)N(C)C)oc34)CC2)n1 [Example 46, 7-(4-(2-(6-Methoxypyridin-2-yl)ethyl)piperazin-1-yl)-N,N-dimethylbenzofuran-2-carboxamide] |
| 0.22 | 19 | CN(C)C(=O)c1cc2cccc(N3CCN(CCc4ccc(F)cn4)CC3)c2o1 [Example 47, 7-(4-(2-(5-Fluoropyridin-2-yl)ethyl)piperazin-1-yl)-N,N-dimethylbenzofuran-2-carboxamide] |
| 1.3 | 0.7 | COc1cccc(CCNC(=O)c2cc3cccc(N4CCN(CCc5ccccn5)CC4)c3o2)c1 [Example 18, N-(3-Methoxyphenethyl)-7-(4-(2-(pyridin-2-yl)ethyl)piperazin-1-yl)benzofuran-2-carboxamide] |
| 0.99 | 10 | CN(Cc1cccc(S(C)(=O)=O)c1)C(=O)c1cc2cccc(N3CCN(CCc4ccccn4)CC3)c2o1 [Example 19, N-Methyl-N-(3-(methylsulfonyl)benzyl)-7-(4-(2-(pyridin-2-yl)ethyl)piperazin-1-yl)benzofuran-2-carboxamide] |
| 0.35 | 11 | CN(C)C(=O)c1cc2c(Br)ccc(N3CCN(CCc4ccccn4)CC3)c2o1 [Example 53, 4-Bromo-N,N-dimethyl-7-(4-(2-(pyridin-2-yl)ethyl)piperazin-1-yl)benzofuran-2-carboxamide] |
| 0.29 | 0.28 | O=C(NC1CCN(c2ncccc2Cl)CC1)c1cc2cccc(N3CCN(CCc4ccccn4)CC3)c2o1 [Example 8, N-(1-(3-Chloropyridin-2-yl)piperidin-4-yl)-7-(4-(2-(pyridin-2-yl)ethyl)piperazin-1-yl)benzofuran-2-carboxamide] |
| 3.3 | 42 | O=C(NC1CC(F)(F)C1)c1cc2cccc(N3CCN(CCc4ccccn4)CC3)c2o1 [Example 14, N-(3,3-Difluorocyclobutyl)-7-(4-(2-(pyridin-2-yl)ethyl)piperazin-1-yl)benzofuran-2-carboxamide] |
| 0.42 | 0.56 | COc1cccnc1N1CCC(NC(=O)c2cc3cccc(N4CCN(CCc5ccccn5)CC4)c3o2)CC1 [Example 24, N-(1-(3-Methoxypyridin-2-yl)piperidin-4-yl)-7-(4-(2-(pyridin-2-yl)ethyl)piperazin-1-yl)benzofuran-2-carboxamide] |
| 0.64 | 7 | CN(C)C(=O)c1cc2cccc(N3CCN(CCc4cccc(C(F)(F)F)n4)CC3)c2o1 [Example 42, N,N-dimethyl-7-(4-(2-(6-(trifluoromethyl)pyridin-2-yl)ethyl)piperazin-1-yl)benzofuran-2-carboxamide] |
| 3.8 | 38 | Cc1ncc(CNC(=O)c2cc3cccc(N4CCN(CCc5ccccn5)CC4)c3o2)cn1 [Example 34, N-((2-Methylpyrimidin-5-yl)methyl)-7-(4-(2-(pyridin-2-yl)ethyl)piperazin-1-yl)benzofuran-2-carboxamide] |
| 2.8 | 140 | COc1cc(N2CCN(CCc3ccccn3)CC2)c2oc(C(=O)N(C)C)cc2c1 [Example 52, 5-Methoxy-N,N-dimethyl-7-(4-(2-(pyridin-2-yl)ethyl)piperazin-1-yl)benzofuran-2-carboxamide] |
| 4.2 | 1.4 | O=C(c1cc2cccc(N3CCN(CCc4ccccn4)CC3)c2o1)N1CCN(c2nccs2)CC1 [Example 23, (7-(4-(2-(Pyridin-2-yl)ethyl)piperazin-1-yl)benzofuran-2-yl)(4-(thiazol-2-yl)piperazin-1-yl)methanone] |
| 0.064 | 1.6 | CC(=O)N1CCc2cc(CCN3CCN(c4cccc5cc(C(=O)N(C)C)oc45)CC3)ccc21 [Example 38, 7-(4-(2-(1-Acetylindolin-5-yl)ethyl)piperazin-1-yl)-N,N-dimethylbenzofuran-2-carboxamide] |
| 2.6 | 63 | CN(Cc1cccnc1)C(=O)c1cc2cccc(N3CCN(CCc4ccccn4)CC3)c2o1 [Example 21, N-Methyl-7-(4-(2-(pyridin-2-yl)ethyl)piperazin-1-yl)-N-(pyridin-3-ylmethyl)benzofuran-2-carboxamide] |
| 0.33 | 2 | CC(=O)c1ccc(CCN2CCN(c3cccc4cc(C(=O)N(C)C)oc34)CC2)nc1 [Example 43, 7-(4-(2-(5-Acetylpyridin-2-yl)ethyl)piperazin-1-yl)-N,N-dimethylbenzofuran-2-carboxamide] |
| 1.3 | 1.1 | O=C(Nc1ccc(N2CCOCC2)cc1)c1cc2cccc(N3CCN(CCc4ccccn4)CC3)c2o1 [Example 2, N-(4-Morpholinophenyl)-7-(4-(2-(pyridin-2-yl)ethyl)piperazin-1-yl)benzofuran-2-carboxamide] |
| 1.5 | 50 | O=C(NCC1CCOCC1)c1cc2cccc(N3CCN(CCc4ccccn4)CC3)c2o1 [Example 31, 7-(4-(2-(Pyridin-2-yl)ethyl)piperazin-1-yl)-N-((tetrahydro-2H-pyran-4-yl)methyl)benzofuran-2-carboxamide] |
| 3.7 | 20 | CC(=O)Nc1ccc(CCN2CCN(c3cccc4cc(C(=O)N(C)C)oc34)CC2)nc1 [Example 44, 7-(4-(2-(5-Acetamidopyridin-2-yl)ethyl)piperazin-1-yl)-N,N-dimethylbenzofuran-2-carboxamide] |
| 0.11 | 0.88 | CNC(=O)c1cc2cccc(N3CCN(CCc4ccccn4)CC3)c2o1 [Example 12, N-Methyl-7-(4-(2-(pyridin-2-yl)ethyl)piperazin-1-yl)benzofuran-2-carboxamide] |
| 2 | 34 | O=C(NCc1cccnc1)c1cc2cccc(N3CCN(CCc4ccccn4)CC3)c2o1 [Example 35, 7-(4-(2-(Pyridin-2-yl)ethyl)piperazin-1-yl)-N-(pyridin-3-ylmethyl)benzofuran-2-carboxamide] |
| 0.23 | 3.5 | O=C(NCc1cccc(O)c1)c1cc2cccc(N3CCN(CCc4ccccn4)CC3)c2o1 [Example 37, N-(3-Hydroxybenzyl)-7-(4-(2-(pyridin-2-yl)ethyl)piperazin-1-yl)benzofuran-2-carboxamide] |
| 2 | 19 | Cc1ccnc(CCNC(=O)c2cc3cccc(N4CCN(CCc5ccccn5)CC4)c3o2)n1 [Example 29, N-(2-(4-Methylpyrimidin-2-yl)ethyl)-7-(4-(2-(pyridin-2-yl)ethyl)piperazin-1-yl)benzofuran-2-carboxamide] |
